# Patent publication US11020383B2, “Methods for the treatment of cancer metastasis” (THE BOARD OF REGENTS OF THE UNIVERSITY OF TEXAS SYSTEM, priority 2017, dated 2021)
# “Also recorded” adds a separate entry of the source.
# What was measured:
# [1] = test system: human prostate cancer androgen resistant C4-2 cells; test: Growth of primary tumor in nude mice xenografted with C4-2 cells; assay type: in vivo
# Description: In the vehicle-treated mouse, the tumor grew by size more than twice in the span of four weeks, whereas in the B1-treated mouse the tumor shrunk to about 50% of the size at the start of treatment (FIG. 2).
# As shown herein, B1 exerts anti-metastatic actions with multiple mechanisms. First, the drug attenuates the growth of the primary tumor. Large tumors shed large number of metastasis seeding circulating tumor cells into circulation, thus increasing the chance of successful colonization of metastatic sites.
# (§1) Importantly, in the second, third and fourth mechanisms, the drug acts independently from the size of primary tumor. This was an unexpected effect.
# [2] = test system: circulating tumor cells (CTCs); test: Enumeration of circulating tumor cells in blood of xenografted mice; assay type: in vivo, nude mice
# Experimental: (§2) CTCs and macrophages were isolated from the blood of two nude mice xenografted with human prostate cancer androgen resistant C4-2 cells and treated biweekly intratumorally with vehicle or B1 (30 mg/kg). In the vehicle-treated mouse, the tumor grew by size more than twice in the span of four weeks, whereas in the B1-treated mouse the tumor shrunk to about 50% of the size at the start of treatment (FIG. 2).
# The anti-tumor actions of B1 in nude mice were confirmed by analysis of circulating tumor cells (CTCs). Enumeration of CTCs is used as a prognostic marker in cancer patients. The enumeration was extended to include not only canonical CTCs positive for epithelial marker EpCAM, but also EpCAM negative CTC-like cells positive for markers of epithelial-mesenchymal transition (EMT), indicative of increased aggressiveness of the cells (Chen et al., 2013).
# M1 and M2 macrophages = test: Enumeration of circulating M1 and M2 macrophages in blood of xenografted mice; assay type: in vivo, nude mice
# Experimental: as §2
# However, the numbers of circulating macrophages were also much lower in the blood of the B1-treated mouse. […] Consistently, the ratios of pro-tumor and anti-tumor macrophages in control and B1-treated mouse were approximated as 2.5 and 0.5, respectively.
# Third, the drug boosts natural anti-cancer immune response. It promotes anti-metastatic profile of macrophages co-purifying with CTCs in the nude mice xenografted with human cultured androgen-independent prostate cancer cells C4-2, and treated with vehicle or with B1 (30 mg/kg). […] Data from one control and one treated mouse are presented in FIG. 5, with data from seven control and six treated mice presented below.
# [3] = test system: circulating tumor cells (CTCs); test: Biophysical profiling of CTCs by atomic force microscopy (PF QNM AFM); assay type: in vivo, nude mice; settings: CTCs from blood of B1-treated vs control mice
# Description: It was postulated that the differences in profiles of circulating macrophages, which may destroy CTCs or help them in seeding metastases, are indicative of the metastatic potential of CTCs. To determine the metastatic potential of CTCs isolated from the blood of human prostate cancer patients and mouse cancer models, biophysical profiling by atomic force microscopy (AFM) was employed. This method was used to confirm the decreased aggressiveness of CTCs isolated from the B1-treated mouse.
# In short, to determine the mechanical phenotype of cells Peak Force Quantitative Nanomechanical Atomic Force Microscopy (PF QNM AFM) imaging was employed. AFM is a type of stylus profilometry. In this particular AFM technique, a micro-sized probe (tip) interacts with a cell surface with strictly controlled force. At each point of contact, the tip position and the “force plot” presenting mechanical interactions of the tip with a cell surface are recorded. Images are created during raster scanning by the tip. The parameters extracted from the force plots are assembled into topographical (cell morphology) and mechanical maps. The mechanical parameters include elasticity (i.e., pressure needed to indent the cell in a reversible manner), deformation (i.e., the depth of maximal indentation enforced by the probe without breaking the cell membrane), and adhesion (i.e., force needed to lift the tip from the cell surface during the probe withdrawal).
# A single AFM scan also provides a shape of the cell to distinguish between epithelial-like and mesenchymal-like phenotypes, and roughness of the cell surface that correlates with activity of apoptotic and EMT pathways (Chen et al, 2013; Osmulski et al., 2014). The integrated inverted fluorescent microscope allows collecting correlative immunocytochemical data about the scanned cells (FIG. 7).
# The probe (tip on a cantilever) indents (vertical movement) and scans (lateral movement) the cell surface. After 10-15 min scan of a 1000-2000 μm^2 area, 5 maps of cell morphology, surface topography, elasticity, deformation, and adhesion (FIG. 6) are computed from the force plots (FIG. 7) created for each of the 4000-65,500 single tip-cell contact points with horizontal resolution of 100 nm, vertical resolution of 10 nm and forces as low as 100 pN. It is established that cancerous cell are much softer, deformable and more adhesive than their normal counterparts (Osmulski et al., 2014).
# Second, the drug decreases aggressiveness of CTCs. The decrease is apparent by comparison of mechanical phenotypes of CTCs isolated from mice xenografted with human cultured androgen-independent prostate cancer cells C4-2, and treated with vehicle or with B1 (30 mg/kg). The data are presented in FIGS. 11-16 and in Table 1 (FIG. 11 is an extended version of FIG. 8).
# [4] = B1 maximum tolerated dose study; assay type: in vivo
# Experimental: A study to determine the maximum tolerated dose was performed on 30 female CB. 17 SCID mice divided into six groups, five animals each. B1 was administered intravenously (i.v.) once a day (q.d.; three groups) or biweekly (three groups), at concentrations of 3 mg/kg, 10 mg/kg or 30 mg/kg, dissolved in 5% ethanol, 5% cremophor in water with 5% dextrose [D5W]. Mice were treated for 28 days, weighted daily on days 1-5 and then on a twice weekly schedule until day 28. They were observed frequently for adverse effects of treatment. […] Thus, B1 is non-toxic for mice even at the highest tested dose, 30 mg/kg.
# [5] = PD/PK study in mice xenografted with RPMI 8226 cells; assay type: in vivo, SCID mice; settings: single 30 mg/kg i.v.
# Experimental: The study involved 11 female SCID mice, with 3 control mice injected with vehicle (5% ethanol, 5% cremophor in water with 5% dextrose [D5W]) and […] injected with B1. The presence of B1 was detected by mass spectrometry in the tumors of B1-injected mice 8 and 12 hours post-injection, at concentrations up to 30.5 ng/g.
# [6] = test system: M1-polarized macrophages from U937 cells; test: Live cell counts of U937-derived M1-type model macrophages; assay type: cell-based, Human; settings: 1 μM B1, n=4
# Experimental: (§3) FIGS. 17A-B: Model M2-polarized macrophages are sensitive to the treatment with B1, in contrast to model M1-polarized macrophages. (FIG. 17A) Human cultured monocytic U937 cells were in vitro differentiated into M0 macrophages and then polarized into M1-type and M2-type macrophages, in the presence of vehicle (DMSO; control) or in the presence of 1 μM B1. The inventors used established protocol to differentiate U937 cells into macrophages (M0) with PMA (phorbol myristate acetate) and then polarize them into model M1 and M2-like types with interferon γ and LPS (lipopolysaccharide) or interleukins IL-4 and IL-13, respectively. The identity of M1-type and M2-type model macrophages was confirmed by cell staining with specific markers: the fluorescent antibodies recognizing surface proteins CD80 (for M1) and CD163 (for M2). (FIG. 17B) Counts of live cells cultured in the presence or absence of B1 are presented.
# (§4) And fourth, the anti-M2 macrophages actions were confirmed in cell culture model.
# [7] = test system: M2-polarized macrophages from U937 cells; test: Live cell counts of U937-derived M2-type model macrophages; assay type: cell-based, Human; settings: 1 μM B1, T test, n=4
# Experimental: as §3, §4
# [8] = test system: human cultured androgen-independent prostate cancer cells C4-2; test: Efficacy study in NOD-SCID mice xenografted with C4-2 cells; assay type: in vivo
# Experimental: FIG. 18. […] The efficacy study was performed with mice xenografted with human cultured androgen-independent prostate cancer cells C4-2. The study involved eleven NOD-SCID mice. […] tumor-growing mice were treated intra-tumorally (IT) with 30 mg/kg B1 twice a week for up to three weeks. The control group (four mice) received a B1 vehicle (dimethylsulfoxide; DMSO). Tumor sizes were measured twice a week.
# [9] = test system: human C4-2 prostate cancer cells; test: Liver micrometastasis by H&E histology in C4-2 tumor-bearing nude mice; assay type: in vivo
# Description: FIG. 10: H&E stained histological liver slices of control nude mice with a tumor induced using human C4-2 prostate cancer cells. Suspected micrometastasis sites are marked with black rings. A scale bar represents 500 μm. Micrometastasis was detected with an average frequency in the control group (untreated) 3.75 per mice, whereas in the B1 treated group it was 1.33 per mice.
# as §1
# proteasome = settings: cited from earlier work
# mTOR pathway = settings: cited from earlier work
# [10] = test system: cultured breast cancer cells; settings: breast cancer cells poorly responsive to bortezomib; cited from earlier work
# [11] = B1 treated vs control mice (FIG. 16)
# [12] = mice with xenografted prostate tumors
# [13] = one B1-treated vs one vehicle mouse (FIG. 5)
# [14] = seven control and six treated nude mice, B1 30 mg/kg
smiles,measurement,setting,value
"COc1cc(CCCOC(=O)C2CCCCN2C(=O)C(=O)C2CCCCC2)cc(OC)c1OC (stereo not drawn) [Compound B1, 3-(3,4,5-trimethoxyphenyl)propyl 1-(2-cyclohexyl-2-oxoacetyl) piperidine-2-carboxylate]",tumor size relative to the size at the start of treatment,"[1]; one nude mouse, C4-2 xenograft, B1 30 mg/kg intratumorally biweekly, four weeks (FIG. 2)",about 50%
same,difference in tumor volume increase between control and B1-treated tumors,[1]; selected group of seven control and six B1-treated mice,no significant difference
same,number of highly invasive post-EMT CTCs,[2]; [11],diminished
same,formation of CTCs clusters,"[2]; B1 treated vs control mice, heat map cluster analysis (FIG. 16)",diminished formation
same,decrease of abundance of cancer cells in the blood stream vs vehicle,[2]; [12],about five-fold
same,numbers of CTCs in blood vs vehicle-treated mouse,"[2]; one B1-treated vs one vehicle mouse, 30 mg/kg intratumorally, EpCAM or vimentin (FIG. 4)",significantly lower
same,ratio of pro-tumor (M2) and anti-tumor (M1) macrophages,"M1 and M2 macrophages; B1-treated mouse, blood (control mouse 2.5)",~0.5
same,formation of CTC-M2 (chaperoning) clusters,M1 and M2 macrophages; [11],limited formation
same,formation of M1-CTC (predatory) clusters,M1 and M2 macrophages; [11],enhanced formation
same,decrease of chaperone immune cells (M2 macrophages) vs vehicle,M1 and M2 macrophages; [12],about four-fold
same,decrease of the ratio of M2 macrophages to M1 macrophages vs vehicle-treated mouse,M1 and M2 macrophages; [12],five-fold
same,"M2 pro-tumor macrophages, control mouse relative to B1-treated mouse",M1 and M2 macrophages; [13],more than four-times
same,number of M1 predator (anti-tumor) macrophages vs control mouse,M1 and M2 macrophages; [13],very similar
same,numbers of circulating macrophages vs vehicle-treated mouse,"M1 and M2 macrophages; one B1-treated vs one vehicle mouse, 30 mg/kg intratumorally",much lower
same,number of anti-cancer M1-type macrophages vs control,M1 and M2 macrophages; [14],larger number
same,number of pro-cancer M2-type macrophages vs control,M1 and M2 macrophages; [14],generally lower number
same,CTC adhesion vs vehicle,"[3]; AFM (FIG. 8, FIG. 11)",less adhesive
same,CTC deformation vs vehicle,"[3]; AFM (FIG. 8, FIG. 11)",less deformable
same,"CTC stiffness (elasticity, Young modulus) vs vehicle","[3]; AFM (FIG. 8, FIG. 11)",harder; also recorded: stiffer
same,aggressiveness of CTCs,[3]; mechanical phenotype,low aggressiveness; also recorded: significantly lowered aggressiveness
same,toxicity at the highest tested dose,"[4]; 30 mg/kg i.v., mice",non-toxic
same,adverse effects on behavior,"[4]; i.v. q.d. or biweekly, 3, 10 or 30 mg/kg, 28 days",no adverse effects
same,differences in body weight between the groups,"[4]; i.v. q.d. or biweekly, 3, 10 or 30 mg/kg, 28 days (FIG. 9)",No statistically significant differences
same,concentration of B1 in the tumors,"[5]; 8 and 12 hours post-injection, mass spectrometry",up to 30.5 ng/g
same,tissue localization,[5]; RPMI 8226 xenograft,localized to the xenografted tumor site
same,counts of live M1 model macrophages vs control,[6],did not affect viability; also recorded: did not differ
same,counts of live M2-type model macrophages vs control,[7],significantly attenuating viability; also recorded: the difference was statistically significant
same,changes in the weight of animals,[8]; 30 mg/kg B1 intra-tumorally twice a week,did not result in detectable changes
same,tumor growth vs control group,[8]; 30 mg/kg B1 intra-tumorally twice a week for up to three weeks (FIG. 18),Significant inhibition; also recorded: significantly attenuated
same,incidence of micrometastases in livers vs controls,[9]; B1-treated mice (FIG. 10),decreased incidence
same,average frequency of liver micrometastasis,[9]; B1 treated group (untreated control 3.75),1.33 per mice
same,26S assembling,proteasome,interferes with 26S assembling
same,affinity of core particle toward bortezomib,proteasome,increases affinity
same,concentration at which proteasome activities are influenced,proteasome,nanomolar concentrations
same,effect on mTOR pathway,mTOR pathway,not affecting
same,cytotoxic effects with bortezomib,[10],strong cytotoxic effects
